Values joined by “and” are separate entries in the source; they are usually repeats but may differ in a detail not shown here. Identical values can stand only once.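 Cells were grown in 96-well plates and exposed to each compound for 48 hours at five concentrations; endpoints were interpolated linearly between bracketing concentrations, or set to the highest concentration if not reached. GI50 = concentration required for 50% inhibition of growth. Definition used: TGI = concentration required for complete inhibition of growth.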 Some results are limits rather than exact numbers.

Holding throughout (assay): inhibition of tumour cell growth, NCI panel, 48 h
Test [1] concerns SF-539 CNS.
Test [2] relates to CCRF-CEM leukemia.
The test system of test [3] is KM12 colon.
Test [4] concerns A498 renal.
The test system of test [5] is 786-0 renal.
Test [6] concerns SR leukemia.
Test [7] relates to LOX IMVI melanoma.
The subject of test [8] is IGROV1 ovarian.
The test system of test [9] is SF-268 CNS.
In test [10] the test system is NCI-H522 lung.

Turning to `CCOC(=O)CCC(NC(=O)c1ccc(N=Cc2nc3cc(C(F)(F)F)ccc3nc2-c2ccccc2)cc1)C(=O)OCC` (centres undefined), the GI50 was 6.03 µM in [1]; above 100 µM in test [2]; above 100 µM in [3]; 30.8 µM in test [5]; above 100 µM in test [6]; above 100 µM in [7]. Further, the GI50 is above 100 µM in [8], 22.9 µM in [9] and 21.5 µM in test [10]. Moreover, the TGI in [1] is 45.7 µM and 28.4 µM; in [2], above 100 µM; in test [3] it was 50 µM and > 100 µM; in [4], 75 µM; in [5], 18.9 µM and > 100 µM; in test [6], above 100 µM. In addition, the TGI was 50 µM and > 100 µM in [7]; 50 µM and > 100 µM in [8]; 31.8 µM and > 100 µM in [9]; 50 µM and > 100 µM in test [10].
In the case of `Cc1cc(Br)cc(C)c1NC(=O)C(=O)CC(=O)c1sc(-n2nc(-c3ccccc3)cc2-c2ccccc2)nc1C`, the TGI in [2], in [3], in test [4], in [5], in test [6] and in test [7] was above 100 µM in each case. Besides, the TGI in [8], in test [9] and in test [10] was above 100 µM throughout.
`Nc1nc(N)[n+]([O-])c(N)c1NCO`: the TGI in test [1], in [2], in [3], in test [4], in test [5] and in test [6] was above 100 µM in each case. The TGI in [7], in test [8], in [9] and in test [10] was above 100 µM in each case.
Consider `Cc1cc2c(C)c3cc(C)c(N)cc3nc2cc1N`, for which the GI50 in [1] is 0.455 µM; in [2], 0.93 µM; in test [3] it was 0.745 µM; in test [4], 0.363 µM; in test [5], 0.929 µM; in test [6], 0.507 µM. In addition, the GI50 in [7] was 0.893 µM; in [8], 1.06 µM; in [9] it was 0.604 µM; in test [10], 0.527 µM. Besides, the TGI in [1] is 3.48 µM; in test [2], 10.6 µM; in [3], 10.2 µM; in [4], 2.01 µM; in test [5], 8.84 µM; in [6], 4.2 µM. Besides, the TGI in [7] turned out to be 4.03 µM; in test [8], 10.8 µM; in test [9], 6.53 µM; in test [10], 2.02 µM.
As for `O=[N+]([O-])c1ccc(-c2ccc(/C=N/n3c(-c4ccc(Cl)cc4)n[nH]c3=S)o2)cc1`, the TGI in test [1] is above 62.7 µM; in test [2], above 100 µM; in test [3], 61.4 µM; in [4] it was above 100 µM; in test [5], 46.2 µM; in [6], above 83.6 µM. Besides, the TGI in test [7], in test [8], in test [9] and in test [10] was above 100 µM throughout.
Regarding `C[C@@H](c1ccc2nccn2c1)n1nnc2ncc(-c3cnn(C)c3)nc21`, the GI50 in test [1] was above 100 µM; in [2], above 100 µM; in test [3], 43.3 µM; in test [4] it was 72.8 µM; in test [5], above 100 µM; in test [6], 49.9 µM. For the same compound, the GI50 in test [7], in test [8], in test [9] and in test [10] was above 100 µM in each case. Further, the TGI in [1], in test [2], in test [3], in test [4], in test [5] and in test [6] was above 100 µM in each case. In addition, the TGI in test [7], in test [8], in test [9] and in test [10] was above 100 µM throughout.
Take `CC(=O)Oc1c(C)n(CCCl)ccc1=O`: the TGI in [2], in [3], in test [4], in test [5], in [6] and in [7] was above 100 µM each time. Further, the TGI in [9] and in test [10] was above 100 µM throughout.
With `Cc1ccc(S(=O)(=O)N/N=C/C(Br)=C(/Br)C(=O)O)cc1`, the TGI in test [1] was 14.5 µM; in [2] it was 9.67 µM; in test [3] it was 33.1 µM; in test [4] it was 32.3 µM; in [5] it was 14.8 µM; in test [6] it was 1.7 µM. Further, the TGI in test [7] worked out at 11 µM; in test [8], 34.7 µM; in [9], 30.2 µM.
For `CC(Cl)(/C=C/Cl)C(Cl)/C=C/C(Cl)(CCl)CBr` (centres undefined), the TGI in [2] was determined as 11.3 µM; in test [3], 20.8 µM; in test [4] it was 18.4 µM; in test [5], 10.8 µM; in [6] it was 2.07 µM; in test [7] it was 4.5 µM. The TGI was found to be 25.1 µM in test [8], 11.3 µM in test [9] and 3.33 µM in test [10].

Source of the values: PubChem BioAssay (NCI).
